Assay [1] relates to HCC cells (PLC, 97L). The assay is described as follows: Chemotherapy-induced cytotoxicity / chemoresistance (XTT assay). It counts as cell-based, human. As to conditions: for cell viability of S100A10-OE cells versus controls on treatment: PLC and 97L.
In assay [2] the test system is PLC-S100A10 xenograft tumors. As to the kind of experiment: Chemoresistance / treatment in subcutaneous xenograft model. It counts as in vivo. The following applies: nude mice. The procedure: All animal experiments were conducted and approved by the University of Hong Kong Committee on the Use of Live Animals in Teaching and Research (CULATR). The frequency of CSCs with tumor initiation capabilities was evaluated using limiting dilution assay. The BALB/c nude mouse xenograft model was used to evaluate tumorigenicity and chemoresistant ability in vivo. Nude mice were intrasplenically injected with HCC cells to assess the liver metastatic capacity in vivo. After surgery, mice recovered from anesthesia in a cage under a heater. Analgesia was provided to the nude mice during the first postoperative week. Tail vein injection of luciferase-labelled MHCC-97L cells in NOD SCID mice was used to assess lung metastatic ability. After mice were killed, the tumor tissues, livers, spleens, and lungs were excised and fixed in 4% paraformaldehyde overnight. Thereafter, fixed tissues were embedded in paraffin for further studies.
For chemoresistance in xenograft model, subcutaneous xenografts in nude mice were established with PLC/PRF/5 or MHCC97L cells. Treatment was started once the size of the xenograft reached ˜5 mm in diameter. The mice were randomly assigned into different groups, each consisting of at least 5 mice. Sorafenib at 10 mg/kg was administered daily through oral gavage. Mouse IgG antibody or anti-S100A10 antibody was administered at 10 μg once every 3 days by intraperitoneal injection.

The test system of assay [3] is HCC cells (PLC, 97L). As to the kind of experiment: Apoptotic assay (annexin-V staining, flow cytometry). The format is cell-based, human. The following applies: PLC and 97L, 48 h. The procedure: The apoptotic assay was determined by flow cytometry using annexin-V staining.
The next assay concerns S100A10. As to the kind of experiment: S100A10 expression under chemotherapeutic treatment (qRT-PCR, western blot). The format is cell-based, human. As to conditions: HCC cells treated with chemotherapeutic agents. The method, then: Total RNA was extracted using the TRIZOL Reagent (Life Technologies). cDNA was synthesized by reverse transcription (Roche). SYRB Green PCR Master Mix (Applied Biosystems) and Applied Biosystems Quant Studio 5 Real-time PCR System were used for qRT-PCR analysis. All qRT-PCR reactions were tested in triplicates.
(§1) Quantified protein lysates were resolved on SDS-PAGE, transferred onto a polyvinylidenedifluoride (PVDF) membrane (Bio-Rad), and then blocked with 5% non-fat milk in Tris-buffered saline-Tween 20 (TBST) for 1 h at room temperature. The blocked membrane was then incubated with primary antibody diluted in 5% bovine serum albumin in TBST at 4° C. overnight.

In a further assay the test system is HIF-1α. As to the kind of experiment: HIF-1α expression under chemotherapeutic treatment (western blot). The format is cell-based, human. As to conditions: HCC cells treated with chemotherapeutic agents. The method, then: as §1
The subject of assay [4] is HCC cells (PLC, 97L). As to the kind of experiment: Transwell migration and matrigel invasion assays (pretreated HCC cells). It counts as cell-based, human. The procedure:
Transwell migration and invasion assays were performed to evaluate cell motility (Corning, #353097 for migration, #354480 for invasion). Approximately 1×10^5 cells were seeded in the medium without FBS on transwell upper chambers, and the lower chamber was supplied with medium with 10% FBS, with the indicated conditional medium, or EVs. The cells that migrated and invaded to the lower membrane surface were stained using crystal violet and then counted under microscopy.
(§2) HCC cells were seeded in 6-well plate and subjected to 2 μg EVs treatment for 48 hours one day after seeding. Then the cells were used for functional studies or western blotting. For treating with neutralizing antibodies, EVs were incubated with PBS (1:10 volume/volume), IgG antibody (1:10 volume/volume) (Santa Cruz, sc-2025), or anti-S100A10 neutralizing antibody (1:10 volume/volume) (Santa Cruz, sc-81153) before they were applied in in vitro or in vivo assays. For S100A10 NA or ITGAV treatment before EVs isolation, 20 ug S100A10 NA or IgG were pre-incubate with 1,000 million cells and then seed in medium with 10% EVs free FBS. Then the EVs were collected after 48 hours.

A further assay concerns PLC-Vec/S100A10 cells. As to the kind of experiment: XTT assay for cell proliferation with gefitinib. The format is cell-based, human.
The test system of assay [5] is PLC cells. The assay is described as follows: Focus formation assay. The format is cell-based, human. The procedure: Focus formation assay was used to assess anchorage-dependent growth. In brief, 1,000 cells were seeded in each well of six-well plate for approximately 2-3 weeks. Surviving colonies were stained and counted using crystal violet (Sigma-Aldrich).
as §2

Assay [6] relates to PLC cells. As to the kind of experiment: Sphere formation assay. The format is cell-based, human. The procedure: A total of 1,000 cells were cultured in 0.25% methyl cellulose (Sigma-Aldrich) supplemented DMEM/F12 medium (Life Technologies) with 20 ng/mL EGF (Life Technologies), 10 ng/mL basic FGF (Life Technologies), B27 (1:50, GIBCO), and 4 μg/mL insulin (BIOIND, Kibbutz Beit Haemek, Israel) in 24-well plates, which were coated with poly HEMA (Sigma-Aldrich). The cells were replenished with 30 μL supplementary medium every other day.
as §2

Assay [7] deals with MMP2, fibronectin and EGF on EVs. As to the kind of experiment: Western blotting of MMP2, fibronectin, EGF and S100A10 in EVs and cells. It counts as cell-based, human. As to conditions: PLC-S100A10 cells treated 48 hours, compared with control GRADSP peptides (RAD). The method, then:
For EVs isolation from cell culture supernatants, HCC cells were cultured in medium with 10% EV-depleted FBS, which was prepared by 100,000× g centrifugation overnight (≥12 h) at 4° C. (Himac, CP100NX Ultracentrifuges). EVs were purified by differential centrifugation after the cell culture supernatant were collected. Briefly, cell culture supernatants were centrifuged at 2000×g for 15 min to remove cell debris and dead cells. Then the supernatant was centrifugated at 20000×g for 30 min at 4° C. to remove microvesicles. Then the supernatant was first passed through 0.22 μm filter followed by ultracentrifugation at 100,000×g for 2 h at 4° C. to collect EVs. The EVs were then washed with PBS and collected by ultracentrifugation at 100,000×g for another 2 h at 4° C. HCC patients' or healthy donors' plasma derived EVs were purified by differential centrifugation. The plasma was first centrifuged at 4000 g for 15 min to obtain cell-free plasma. Then, 500 μL of the obtained plasma was toped-up to 1 mL and then centrifuged at 20,000 g for 1 hour (Himac, CP100NX Ultracentrifuges). The collected supernatants were then centrifuged at 100,000 g for 2 h at 4° C. […]
Quantified protein lysates were resolved on SDS-PAGE, transferred onto a polyvinylidenedifluoride (PVDF) membrane (Bio-Rad), and then blocked with 5% non-fat milk in Tris-buffered saline-Tween 20 (TBST) for 1 h at room temperature. […]

The values below come from patent US20240094211A1, “COMPOSITIONS AND METHODS TARGETING S100A10 FOR THE TREATMENT AND DIAGNOSIS OF LIVER CANCER” (The University of Hong Kong, priority 2022, published 2024).

Consider `O=c1[nH]cc(F)c(=O)[nH]1` [5-FU, 5-flurouracil], for which the “cell viability of S100A10-OE cells versus controls on treatment” value with HCC cells (PLC, 97L) [1] is given as “significantly higher”. Moreover, the “xenograft tumor growth in PLC-S100A10 group versus control group when treated” value in [2] is given as “significantly larger”. Also, the “apoptotic indices of S100A10-OE cells versus controls on treatment” value with HCC cells (PLC, 97L) [3] is listed as “lower”. In the assay with S100A10, the “expression of S100A10” value is reported as “upregulated”.

`N.N.[Cl][Pt][Cl]` [cisplatin]: the “cell viability of S100A10-OE cells versus controls on treatment” value in the assay on HCC cells (PLC, 97L) [1] was “significantly higher”. The “expression of HIF-1α” value in the assay on HIF-1α is reported as “upregulated”. In addition, the “xenograft tumor growth in PLC-S100A10 group versus control group when treated” value in assay [2] is reported as “significantly larger”. Besides, the “apoptotic indices of S100A10-OE cells versus controls on treatment” value in the assay with HCC cells (PLC, 97L) [3] was “lower”. In addition, the “expression of S100A10” value in the assay on S100A10 is “upregulated”.

As for `COc1cc2ncnc(Nc3ccc(F)c(Cl)c3)c2cc1OCCCN1CCOCC1` [gefitinib], the “chemoresistance of S100A10-OE cells” value with HCC cells (PLC, 97L) [1] (PLC S100A10-OE cells, sorafenib) is recorded as “significantly suppressed”. Also, in the assay with HCC cells (PLC, 97L) [4], the “invasion ability of S100A10-OE cells” value is “significantly suppressed” and the “migration ability of S100A10-OE cells” value is reported as “significantly suppressed”. Further, the “sensitivity of S100A10-OE cells versus Vec cells (cell proliferation)” value in the assay with PLC-Vec/S100A10 cells is recorded as “more sensitive”. Further, the “focus formation of S100A10-OE cells” value in the assay with PLC cells [5] is listed as “significantly suppressed”. Moreover, the “sphere formation of S100A10-OE cells” value with PLC cells [6] is reported as “significantly suppressed”.

`CNC(=O)c1cc(Oc2ccc(NC(=O)Nc3ccc(Cl)c(C(F)(F)F)c3)cc2)ccn1` [sorafenib]: the “cell viability of S100A10-OE cells versus controls on treatment” value in the assay on HCC cells (PLC, 97L) [1] is on record as “significantly higher”. In addition, in the assay on HIF-1α, the “expression of HIF-1α” value is listed as “upregulated”. Moreover, the “xenograft tumor growth in PLC-S100A10 group versus control group when treated” value in [2] is reported as “significantly larger”. The “apoptotic indices of S100A10-OE cells versus controls on treatment” value in the assay with HCC cells (PLC, 97L) [3] is reported as “lower”. In addition, the “expression of S100A10” value in the assay with S100A10 is given as “upregulated”.

Turning to GRGDSP [RGD peptide], in assay [7], the “S100A10 on EVs” value was “no changes”; the “levels of MMP2, fibronectin and EGF on EVs” value is listed as “greatly reduced”.
